Experimental data reported in the supplement of paper PMC10307832.

Experiments:
Test in all cases: relative viability (nuclei count vs DMSO), 5 days (fraction); higher = more cells survive
Alisertib + Phenformin = compound: COc1cc(Nc2ncc3c(n2)-c2ccc(Cl)cc2C(c2c(F)cccc2OC)=NC3)ccc1C(=O)O [Alisertib] + N=C(N)NC(=N)NCCc1ccccc1 [Phenformin] (partner 250 µM)
How it was run: (§1)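 Cells from lung cancer lines were seeded into 1536-well plates and, one day later, dosed by pin tool. Treatments were either a single drug or a fixed dose of an anchor drug with five library-drug doses (not always all listed) in √10 steps. After 5 days, nuclei were stained in a one-step fixation (final 0.05% Triton X-100, 1% formaldehyde, 1 ug/ml Hoechst) and counted on 4× images, and relative viability is the treated-to-vehicle nuclei ratio, as the median of duplicate plates.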

Alisertib + AZD7762 = compound: COc1cc(Nc2ncc3c(n2)-c2ccc(Cl)cc2C(c2c(F)cccc2OC)=NC3)ccc1C(=O)O [Alisertib] + NC(=O)Nc1cc(-c2cccc(F)c2)sc1C(=O)N[C@H]1CCCNC1 [AZD7762] (partner 0.2 µM)
How it was run: as §1

Alisertib + Alpelisib = compound: COc1cc(Nc2ncc3c(n2)-c2ccc(Cl)cc2C(c2c(F)cccc2OC)=NC3)ccc1C(=O)O [Alisertib] + Cc1nc(NC(=O)N2CCC[C@H]2C(N)=O)sc1-c1ccnc(C(C)(C)C(F)(F)F)c1 [Alpelisib] (partner 2 µM)
How it was run: as §1

Alisertib + Pictilisib = compound: COc1cc(Nc2ncc3c(n2)-c2ccc(Cl)cc2C(c2c(F)cccc2OC)=NC3)ccc1C(=O)O [Alisertib] + CS(=O)(=O)N1CCN(Cc2cc3nc(-c4cccc5[nH]ncc45)nc(N4CCOCC4)c3s2)CC1 [Pictilisib] (partner 1 µM)
How it was run: as §1

Cell Line	relative viability (Alisertib + Phenformin; first compound 0.005 µM)	relative viability (Alisertib + Phenformin; first compound 0.01581 µM)	relative viability (Alisertib + Phenformin; first compound 0.05 µM)	relative viability (Alisertib + Phenformin; first compound 0.1581 µM)	relative viability (Alisertib + Phenformin; first compound 0.5 µM)	relative viability (Alisertib + AZD7762; first compound 0.005 µM)	relative viability (Alisertib + AZD7762; first compound 0.01581 µM)	relative viability (Alisertib + AZD7762; first compound 0.05 µM)	relative viability (Alisertib + AZD7762; first compound 0.1581 µM)	relative viability (Alisertib + AZD7762; first compound 0.5 µM)	relative viability (Alisertib + Alpelisib; first compound 0.005 µM)	relative viability (Alisertib + Alpelisib; first compound 0.01581 µM)	relative viability (Alisertib + Alpelisib; first compound 0.05 µM)	relative viability (Alisertib + Alpelisib; first compound 0.1581 µM)	relative viability (Alisertib + Alpelisib; first compound 0.5 µM)	relative viability (Alisertib + Pictilisib; first compound 0.005 µM)	relative viability (Alisertib + Pictilisib; first compound 0.01581 µM)	relative viability (Alisertib + Pictilisib; first compound 0.05 µM)	relative viability (Alisertib + Pictilisib; first compound 0.1581 µM)	relative viability (Alisertib + Pictilisib; first compound 0.5 µM)
NCI-H441	0.755	0.444	0.2	0.255	0.249	0.927	0.977	0.471	0.243	0.199	0.787	0.528	0.172	0.153	0.157	0.402	0.229	0.118	0.139	0.123
NCI-H460	0.474	0.343	0.0695	0.0235	0.0304	0.66	0.667	0.232	0.0611	0.0558	0.456	0.451	0.149	0.0179	0.0099	0.364	0.428	0.327	0.0613	0.0689
NCI-H596	0.675	0.875	0.759	0.822	0.393	0.96	1.02	1.15	0.926	0.66	–	0.478	0.481	0.351	0.172	–	0.412	0.433	0.214	0.242
NCI-H647	0.456	0.336	0.168	0.0894	0.0773	0.314	0.367	0.103	0.0861	0.0503	1.05	0.691	0.341	0.148	0.0808	0.42	0.449	0.274	0.137	0.0788
NCI-H650	0.404	0.377	0.258	0.202	0.168	0.772	0.738	0.37	0.255	0.259	1.15	0.947	0.513	0.237	0.205	0.732	0.825	0.29	0.267	0.174
NCI-H727	0.514	0.504	0.262	0.276	0.352	0.618	0.586	0.591	0.398	0.326	0.663	0.515	0.434	0.302	0.244	0.273	0.333	0.236	0.236	0.225
NCI-H838	0.444	0.446	0.276	0.183	0.144	0.943	0.852	0.715	0.669	0.626	0.904	0.993	0.484	0.315	0.224	0.377	0.379	0.274	0.189	0.113
NCI-H1355	0.4	0.353	0.23	0.182	0.189	0.707	0.641	0.364	0.168	0.146	0.767	0.783	0.296	0.197	0.154	0.37	0.374	0.28	0.181	0.164
